# Test results as given in US20060069132A1, “Azolecarboxamide herbicides” (priority 2004, published 2006).
# Assays:
# barnyardgrass [1] = test: Test B pre-/postemergence herbicide test; format: in vivo, Echinochloa crus-galli; conditions: for Plant response rating, Barnyardgrass: preemergence; for Barnyardgrass plant response rating: postemergence, visual rating, scale 0 (no effect) to 100 (complete control)
# Procedure, shortened: (§1)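 Herbicidal effect was judged by eye on a 0–100 scale after plants stood 13 to 15 days in the greenhouse following pre- or postemergence treatment with surfactant-containing formulations.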
# Surinam grass = test: Test B pre-/postemergence herbicide test; format: in vivo, Urochloa decumbens; conditions: for Plant response rating, Surinam Grass: preemergence; for Surinam Grass plant response rating: postemergence, visual rating, scale 0 (no effect) to 100 (complete control)
# Procedure, shortened: (§2)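 Plants compared with untreated controls 13–15 days post-treatment and given a visual 0–100 injury score. Applications: preemergence to seeds; postemergence at 1- to 4-leaf (2–18 cm); paddy species flooded, 2-leaf stage. Vehicle non-phytotoxic, surfactant included.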
# cocklebur = test: Test B pre-/postemergence herbicide test; format: in vivo, Xanthium strumarium; conditions: for Plant response rating, Cocklebur: preemergence; for Cocklebur plant response rating: postemergence, visual rating, scale 0 (no effect) to 100 (complete control)
# Procedure, shortened: as §1
# corn = test: Test B pre-/postemergence herbicide test; format: in vivo, Zea mays; conditions: for Plant response rating, Corn: preemergence; for Corn plant response rating: postemergence, visual rating, scale 0 (no effect) to 100 (complete control)
# Procedure, shortened: as §2
# large crabgrass = test: Test B pre-/postemergence herbicide test; format: in vivo, Digitaria sanguinalis; conditions: for Plant response rating, Crabgrass, Large: preemergence; for Crabgrass, Large plant response rating: postemergence, visual rating, scale 0 (no effect) to 100 (complete control)
# Procedure, shortened: as §2
# giant foxtail = test: Test B pre-/postemergence herbicide test; format: in vivo, Setaria faberi; conditions: for Plant response rating, Foxtail, Giant: preemergence; for Foxtail, Giant plant response rating: postemergence, visual rating, scale 0 (no effect) to 100 (complete control)
# Procedure, shortened: as §2
# lambsquarters = test: Test B pre-/postemergence herbicide test; format: in vivo, Chenopodium album; conditions: for Plant response rating, Lambsquarters: preemergence; for Lambsquarters plant response rating: postemergence, visual rating, scale 0 (no effect) to 100 (complete control)
# Procedure, shortened: as §2
# morningglory = test: Test B pre-/postemergence herbicide test; format: in vivo, Ipomoea coccinea; conditions: for Plant response rating, Morningglory: preemergence; for Morningglory plant response rating: postemergence, visual rating, scale 0 (no effect) to 100 (complete control)
# Procedure, shortened: as §1
# pigweed = test: Test B pre-/postemergence herbicide test; format: in vivo, Amaranthus retroflexus; conditions: for Plant response rating, Pigweed: preemergence; for Pigweed plant response rating: postemergence, visual rating, scale 0 (no effect) to 100 (complete control)
# Procedure, shortened: as §2
# rice [2] = test: Test B pre-/postemergence herbicide test; format: in vivo, Oryza sativa; conditions: preemergence
# Procedure, shortened: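 Greenhouse pot assay with simultaneous preemergence (treated seed) and postemergence (2–18 cm seedlings) applications of surfactant-containing, non-phytotoxic solvent formulations. Response scored visually 13–15 days later on a 0–100 scale, 100 meaning complete control.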
# velvetleaf = test: Test B pre-/postemergence herbicide test; format: in vivo, Abutilon theophrasti; conditions: for Plant response rating, Velvetleaf: preemergence; for Velvetleaf plant response rating: postemergence, visual rating, scale 0 (no effect) to 100 (complete control)
# Procedure, shortened: as §2
# blackgrass = test: Test B postemergence herbicide test; format: in vivo, Alopecurus myosuroides; conditions: postemergence, visual rating, scale 0 (no effect) to 100 (complete control)
# Procedure, shortened: (§3)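 Treated at 2-leaf (paddy) or 1–4-leaf, 2–18 cm (postemergence); greenhouse 13–15 d; visual score vs control, 0 none to 100 complete control; dash = not tested.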
# wheat = test: Test B postemergence herbicide test; format: in vivo, Triticum aestivum; design: key to Wheat plant response rating: 0 = no effect, 100 = complete control; conditions: postemergence, 500 g ai/ha; visual rating, scale 0 (no effect) to 100 (complete control)
# Procedure, shortened: as §3
# wild oat = test: Test B postemergence herbicide test; format: in vivo, Avena fatua; conditions: postemergence, visual rating, scale 0 (no effect) to 100 (complete control)
# Procedure, shortened: as §3
# rice [3] = test: Test B flooded paddy test; format: in vivo, Oryza sativa; conditions: 1000 g ai/ha, visual rating, scale 0 to 100 (0 no effect, 100 complete control), 13 to 15 days
# Procedure, shortened: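 Formulated test chemicals went onto postemergence plants measuring 2 to 18 cm, at one to four leaves. For the paddy assay, species had reached two leaves. Scoring took place 13–15 days later by eye, relative to untreated plants, using 0 for no effect up to 100 for full control.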
# [4] = tested on: small flower umbrella sedge; test: Test B flooded paddy test; format: in vivo, Cyperus difformis; conditions: 1000 g ai/ha, visual rating, scale 0 to 100 (0 no effect, 100 complete control), 13 to 15 days
# Procedure, shortened: as §3
# ducksalad [5] = test: Test B flooded paddy test; format: in vivo, Heteranthera limosa; conditions: 1000 g ai/ha, visual rating, scale 0 to 100 (0 no effect, 100 complete control), 13 to 15 days
# Procedure, shortened: as §3
# barnyardgrass [6] = test: Test B flooded paddy test; format: in vivo, Echinochloa crus-galli; conditions: 1000 g ai/ha, visual rating, scale 0 to 100 (0 no effect, 100 complete control), 13 to 15 days
# Procedure, shortened: as §3
# rice [7] = test: Test C flooded paddy test; format: in vivo, Oryza sativa
# Procedure, shortened: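 Plants were grown to the 1- to 4-leaf stage (2–18 cm) and then treated postemergence, or grown to the 2-leaf stage for the flooded paddy test. They were held in a greenhouse for 12 to 14 days and then scored by eye against controls, where 0 is no effect and 100 is complete control.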
# [8] = tested on: smallflower umbrella sedge; test: Test C flooded paddy test; format: in vivo, Cyperus difformis
# ducksalad [9] = test: Test C flooded paddy test; format: in vivo, Heteranthera limosa
# barnyardgrass [10] = test: Test C flooded paddy test; format: in vivo, Echinochloa crus-galli
# Procedure, shortened: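 After a postemergence application at 1 to 4 leaves (plants 2–18 cm high), or at 2 leaves for barnyardgrass in flooded paddy, plants stayed in the greenhouse for 12 to 14 days. Damage was then judged visually relative to control plants, with 100 indicating complete control.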
# [11] = 500 g ai/ha, visual rating 0-100, 0 no effect, 100 complete control
# [12] = 125 g ai/ha, 0 to 100 scale, 0 is no effect, 100 is complete control
# [13] = 62 g ai/ha, scale 0 to 100 (0 no effect, 100 complete control)
# [14] = 125 g ai/ha, scale 0 to 100 (0 no effect, 100 complete control)
# [15] = 250 g ai/ha, scale of 0 to 100, 0 is no effect, 100 is complete control
# [16] = 500 g ai/ha, visual rating after 12 to 14 days, scale 0 to 100 (0 no effect, 100 complete control)
structure (smiles),measurement,setting,value
CCn1nc(C(C)(C)C)cc1C(=O)Nc1cc(C(=O)NCCOC)ccn1 [Compound 161],"Plant response rating, Barnyardgrass",barnyardgrass [1]; [11],100
same,Barnyardgrass plant response rating,barnyardgrass [1]; 125 g ai/ha,10
same,Barnyardgrass plant response rating,barnyardgrass [1]; 500 g ai/ha,10
same,"Plant response rating, Barnyardgrass",barnyardgrass [1]; [12],50
same,"Plant response rating, Surinam Grass",Surinam grass; [11],60
same,Surinam Grass plant response rating,Surinam grass; 125 g ai/ha,20
same,Surinam Grass plant response rating,Surinam grass; 500 g ai/ha,20
same,"Plant response rating, Surinam Grass",Surinam grass; [12],10
same,"Plant response rating, Cocklebur",cocklebur; [11],0
same,Cocklebur plant response rating,cocklebur; 125 g ai/ha,20
same,Cocklebur plant response rating,cocklebur; 500 g ai/ha,30
same,"Plant response rating, Cocklebur",cocklebur; [12],0
same,"Plant response rating, Corn",corn; [11],10
same,Corn plant response rating,corn; 125 g ai/ha,0
same,Corn plant response rating,corn; 500 g ai/ha,0
same,"Plant response rating, Corn",corn; [12],0
same,"Plant response rating, Crabgrass, Large",large crabgrass; [11],100
same,"Crabgrass, Large plant response rating",large crabgrass; 125 g ai/ha,0
same,"Crabgrass, Large plant response rating",large crabgrass; 500 g ai/ha,10
same,"Plant response rating, Crabgrass, Large",large crabgrass; [12],80
same,"Plant response rating, Foxtail, Giant",giant foxtail; [11],100
same,"Foxtail, Giant plant response rating",giant foxtail; 125 g ai/ha,20
same,"Foxtail, Giant plant response rating",giant foxtail; 500 g ai/ha,30
same,"Plant response rating, Foxtail, Giant",giant foxtail; [12],20
same,"Plant response rating, Lambsquarters",lambsquarters; [11],100
same,Lambsquarters plant response rating,lambsquarters; 125 g ai/ha,70
same,Lambsquarters plant response rating,lambsquarters; 500 g ai/ha,70
same,"Plant response rating, Lambsquarters",lambsquarters; [12],100
same,"Plant response rating, Morningglory",morningglory; [11],40
same,Morningglory plant response rating,morningglory; 125 g ai/ha,20
same,Morningglory plant response rating,morningglory; 500 g ai/ha,20
same,"Plant response rating, Morningglory",morningglory; [12],10
same,"Plant response rating, Pigweed",pigweed; [11],100
same,Pigweed plant response rating,pigweed; 125 g ai/ha,20
same,Pigweed plant response rating,pigweed; 500 g ai/ha,60
same,"Plant response rating, Pigweed",pigweed; [12],100
same,"Plant response rating, Rice",rice [2]; [11],40
same,"Plant response rating, Rice",rice [2]; [12],0
same,"Plant response rating, Velvetleaf",velvetleaf; [11],70
same,Velvetleaf plant response rating,velvetleaf; 125 g ai/ha,20
same,Velvetleaf plant response rating,velvetleaf; 500 g ai/ha,50
same,"Plant response rating, Velvetleaf",velvetleaf; [12],20
same,Blackgrass plant response rating,blackgrass; 125 g ai/ha,40
same,Blackgrass plant response rating,blackgrass; 500 g ai/ha,40
same,Wheat plant response rating,wheat,10
same,"Oat, Wild plant response rating",wild oat; 125 g ai/ha,30
same,"Oat, Wild plant response rating",wild oat; 500 g ai/ha,40
same,Rice plant response rating,rice [3],40
same,"Sedge, Umbrella plant response rating",[4],60
same,Ducksalad plant response rating,ducksalad [5],80
same,Barnyardgrass plant response rating,barnyardgrass [6],80
same,Rice plant response rating,rice [7]; [13],0
same,Rice plant response rating,rice [7]; [14],10
same,Rice plant response rating,rice [7]; [15],60
same,"Plant response rating, Rice",rice [7]; [16],65
same,"Sedge, Umbrella plant response rating",[8]; [13],0
same,"Sedge, Umbrella plant response rating",[8]; [14],0
same,"Sedge, Umbrella plant response rating",[8]; [15],25
same,"Plant response rating, Sedge, Umbrella",[8]; [16],40
same,Ducksalad plant response rating,ducksalad [9]; [13],30
same,Ducksalad plant response rating,ducksalad [9]; [14],65
same,Ducksalad plant response rating,ducksalad [9]; [15],80
same,"Plant response rating, Ducksalad",ducksalad [9]; [16],90
same,Barnyardgrass plant response rating,barnyardgrass [10]; [13],0
same,Barnyardgrass plant response rating,"barnyardgrass [10]; 125 g ai/ha, scale of 0 to 100, 0 is no effect, 100 is complete control",0
same,Barnyardgrass plant response rating,barnyardgrass [10]; [15],30
same,"Plant response rating, Barnyardgrass",barnyardgrass [10]; [16],75
